Assays:
[1] = system: WI38 normal human lung fibroblasts; assay: Proliferation assay (MTT, 72 h) on normal lung fibroblasts WI38; type: cell-based; conditions: WI-38, read-out: IC50 WI38/HFF-1 (WI38)
Protocol: (§1) Human carcinoma cell lines A549 (lung carcinoma), HeLa (cervical carcinoma), SW620 (colorectal adenocarcinoma, metastatic), and CFPAC-1 (pancreatic cancer, derived from metastatic: liver), normal human lung (WI38) and foreskin (HFF-1) fibroblasts were obtained from the American Type Culture Collection (ATCC). Cells were cultured in humidified atmosphere at 37 °C with 5% CO2. As growth medium, Dulbecco’s modified Eagle medium (DMEM) was used with the addition of foetal bovine serum (10%), L-glutamine (2 mM) and antibiotics: streptomycin (100 µg/ml) and penicillin (100 U/ml).
(§2) Cells were seeded onto 96-well microtiter plates at a seeding density of 3000 cells/well for carcinoma cell lines, and 5000 cells/well for normal human fibroblasts. The next day, cells were treated with test agents in five different concentrations (0.01–100 µM) and further incubated for 72 h. […] Following 72 h incubation, the MTT assay was performed and measured absorbances were transformed into percentage of cell growth as described previously. Results were obtained from three independent experiments. IC50 values were calculated using linear regression analysis and results were statistically analysed by ANOVA, Tukey post-hoc test (p < .05).

[2] = system: CFPAC-1 (ductal pancreatic adenocarcinoma); assay: Proliferation assay (MTT, 72 h) on CFPAC-1; type: cell-based; conditions: Homo sapiens
Protocol: as §1, §2

[3] = system: A549 (lung carcinoma); assay: Proliferation assay (MTT, 72 h) on A549; type: cell-based; conditions: Homo sapiens, A549 lung adenocarcinoma
Protocol: as §1, §2

[4] = system: SW620 (colorectal adenocarcinoma, metastatic); assay: Proliferation assay (MTT, 72 h) on SW620; type: cell-based; conditions: Homo sapiens, SW-620
Protocol: as §1, §2

[5] = system: HeLa (cervical carcinoma); assay: Proliferation assay (MTT, 72 h) on HeLa; type: cell-based; conditions: Homo sapiens
Protocol: as §1, §2

IC50 [2]	IC50 [3]	IC50 [4]	IC50 [5]	melting point	Structure (SMILES)	IC50 [1]
> 100 µM	> 100 µM	> 100 µM	> 100 µM		O=c1cc(Cn2cc(Cn3cnc4ccccc43)nn2)c2ccc(O)cc2o1 [Compound 12e, 4-{4-[((1H-benzo[d]imidazol-1-yl)methyl)-1H-1,2,3-triazol-1-yl]methyl}-7-hydroxy-4a,8a-dihydro-2H-chromen-2-on]	> 100 µM
> 100 µM	> 100 µM	> 100 µM	> 100 µM		Fc1ccc(-n2cc(Cn3ccc4cc(F)ccc43)nn2)cc1 [Compound 10a, 1-{[1-(4-Fluorophenyl)-1H-1,2,3-triazol-4-yl]methyl}-5-fluoro-1H-indole]	> 100 µM
> 100 µM	40.2 µM	45.8 µM	31 µM	117 to 120 °C	Fc1ccc2c(ccn2Cc2cn(-c3ccc(Cl)cc3)nn2)c1 [Compound 10b]	58.1 µM
62.8 µM	66.4 µM	55.7 µM	32.9 µM	220 to 221 °C	FC(F)(F)c1ccc(-n2cc(Cn3cc(Br)c4c(Cl)ncnc43)nn2)cc1 [Compound 9c, 5-Bromo-4-chloro-7-{[1-(4-(trifluoromethyl)phenyl)-1H-1,2,3-triazol-4-yl]methyl}-7H-pyrrolo[2,3-d]pyrimidine]	57.5 µM
33.4 µM	53.2 µM	38.9 µM	34.2 µM		Fc1ccc(-n2cc(Cn3cnc4c(Cl)ncnc43)nn2)cc1 [Compound 4a, 6-Chloro-9-{[1–(4-fluorophenyl)-1 H-1,2,3-triazol-4-yl]methyl}-9 H-purine]	5.21 µM
7.9 µM	15.9 µM	14.7 µM	12.3 µM		FC(F)(F)c1ccc(-n2cc(Cn3cnc4c(Cl)ncnc43)nn2)cc1 [Compound 4c, 6-Chloro-9-{[1-(4-(trifluoromethyl)phenyl)-1H-1,2,3-triazol-4-yl]methyl}-9H-purine]	0.75 µM
> 100 µM	> 100 µM	> 100 µM	> 100 µM		O=c1cc(Cn2cc(Cn3cnc4c(Cl)nccc43)nn2)c2ccc(O)cc2o1 [Compound 5e]	60.5 µM
77.1 µM	51.9 µM	57.6 µM	47.6 µM	181 to 184 °C	O=c1cc(Cn2cc(Cn3ccc4cc(F)ccc43)nn2)c2ccc(O)cc2o1 [Compound 10e, 4-{[4-((5-Fluoro-1H-indol-1-yl)methyl)-1H-1,2,3-triazol-1-yl]methyl}-7-hydroxy-2H-chromen-2-one]	45.7 µM
> 100 µM	89 µM	92.5 µM	58 µM		O=c1cc(Cn2cc(Cn3cnc4c(Cl)ncnc43)nn2)c2ccc(O)cc2o1 [Compound 4e, 4-{[4-((6-Chloro-9H-purin-9-yl)methyl)-1H-1,2,3-triazol-1-yl]methyl}-7-hydroxy-2H-chromen-2-one]	6.58 µM
65.1 µM	86.4 µM	65.9 µM	20 µM	145 to 147 °C	Fc1ccccc1-n1cc(Cn2cc(Br)c3c(Cl)ncnc32)nn1 [Compound 9d, 5-Bromo-4-chloro-7-{[1–(2-fluorophenyl)-1 H-1,2,3-triazol-4-yl]methyl}-7 H-pyrrolo[2,3-d]pyrimidine]	48.5 µM
34.7 µM	36.2 µM	> 100 µM	21.9 µM		Fc1ccccc1-n1cc(Cn2cnc3ccccc32)nn1 [Compound 12d, 1-{[1–(2-fluorophenyl)-1H-1,2,3-triazol-4-yl]methyl}-1H-benzo[d]imidazole]	30.6 µM
46.6 µM	46.9 µM	37.1 µM	38.8 µM		FC(F)(F)c1ccc(-n2cc(Cn3ccc4c(Cl)ncnc43)nn2)cc1 [Compound 8c, 4-Chloro-7-{[1-(4-(trifluoromethyl)phenyl)-1H-1,2,3-triazol-4-yl]methyl}-7H-pyrrolo[2,3-d]pyrimidine]	4.62 µM
48.4 µM	85.4 µM	8.5 µM	39.4 µM		Fc1ccc(-n2cc(Cn3ccc4c(Cl)ncnc43)nn2)cc1 [Compound 8a, 4-Chloro-7-{[1-(4-fluorophenyl)-1H-1,2,3-triazol-4-yl]methyl}-7H-pyrrolo[2,3-d]pyrimidine]	32.2 µM
31.1 µM	54.6 µM	41.8 µM	33.2 µM	143 to 145 °C	Fc1ccccc1-n1cc(Cn2cnc3c(Cl)ncnc32)nn1 [Compound 4d, 6-Chloro-9-{[1-(2-fluorophenyl)-1H-1,2,3-triazol-4-yl]methyl}-9H-purine]	23.9 µM
7.39 µM	9.43 µM	11.8 µM	22.5 µM	151 to 154 °C	FC(F)(F)c1ccc(-n2cc(Cn3cnc4c(Cl)nccc43)nn2)cc1 [Compound 5c, 4-Chloro-1-{[1-(4-(trifluoromethyl)phenyl)-1H-1,2,3-triazol-4-yl]methyl}-1H-imidazo[4,5-c]pyridine]	5.21 µM
47.3 µM	45.5 µM	45.1 µM	24.5 µM	> 250 °C	O=c1cc(Cn2cc(Cn3cc(Br)c4c(Cl)ncnc43)nn2)c2ccc(O)cc2o1 [Compound 9e, 4-{[4-((5-Bromo-4-chloro-7H-pyrrolo[2,3-d]pyrimidin-7-yl)methyl)-1H-1,2,3-triazol-1-yl]methyl}-7-hydroxy-2H-chromen-2-one]	10.8 µM
64.7 µM	71.6 µM	54.2 µM	53 µM	151 to 154 °C	Fc1ccc2c(ccn2Cc2cn(-c3ccc(C(F)(F)F)cc3)nn2)c1 [Compound 10c, 5-Fluoro-1-{[1–(4-(trifluoromethyl)phenyl)-1 H-1,2,3-triazol-4-yl]methyl}-1 H-indole]	24 µM
47.7 µM	64.5 µM	44.6 µM	65.5 µM		Clc1ccc(-n2cc(Cn3ccc4c(Cl)ncnc43)nn2)cc1 [Compound 8b, 4-Chloro-7-{[1-(4-chlorophenyl)-1H-1,2,3-triazol-4-yl]methyl}-7H-pyrrolo[2,3-d]pyrimidine]	21 µM
> 100 µM	> 100 µM	> 100 µM	> 100 µM	> 250 °C	O=c1cc(Cn2cc(Cn3cnc4ncnc(Cl)c43)nn2)c2ccc(O)cc2o1 [Compound 6e, 4-{[4-((6-Chloro-7H-purin-7-yl)methyl)-1H-1,2,3-triazol-1-yl]methyl}-7-hydroxy-2H-chromen-2-one]	73.6 µM
86.5 µM	76.3 µM	99.9 µM	71.7 µM		Fc1ccc(-n2cc(Cn3cnc4ccccc43)nn2)cc1 [Compound 12a, 1-{[1-(4-fluorophenyl)-1H-1,2,3-triazol-4-yl]met-hyl}-1H-benzo[d]imidazole]	91.9 µM
> 100 µM	73.9 µM	90.2 µM	> 100 µM	124 to 127 °C	Fc1ccccc1-n1cc(Cn2cnc3c(Cl)nccc32)nn1 [Compound 5d, 4-Chloro-1-{[1–(2-fluorophenyl)-1H-1,2,3-triazol-4-yl]methyl}-1H-imidazo[4,5-c]pyridine]	23.9 µM
89.2 µM	> 100 µM	69 µM	36.8 µM	183 to 185 °C	FC(F)(F)c1ccc(-n2cc(Cn3cnc4ccnc(Cl)c43)nn2)cc1 [Compound 7c, 4-Chloro-3-{[1-(4-(trifluoromethyl)phenyl)-1H-1,2,3-triazol-4-yl]methyl}-3H-imidazo[4,5-c]pyridine]	19.4 µM
56.4 µM	14.2 µM	> 100 µM	30.6 µM		FC(F)(F)c1ccc(-n2cc(Cn3cnc4ccccc43)nn2)cc1 [Compound 12c, 1-{[1–(4-(trifluoromethyl)phenyl)-1H-1,2,3-triazol-4-yl]methyl}-1H-benzo[d]imidazole]	> 100 µM
> 100 µM	> 100 µM	> 100 µM	82.9 µM		Fc1ccc2c(ccn2Cc2cn(-c3ccccc3F)nn2)c1 [Compound 10d, 5-Fluoro-1-{[1-(2-fluorophenyl)-1H-1,2,3-triazol-4-yl]methyl}-1H-indole]	> 100 µM
> 100 µM	> 100 µM	> 100 µM	8.77 µM		O=c1cc(Cn2cc(Cn3cnc4ccnc(Cl)c43)nn2)c2ccc(O)cc2o1 [Compound 7e, 4-{[4-((4-Chloro-3H-imidazo[4,5-c]pyridin-3-yl)methyl)-1H-1,2,3-triazol-1-yl]methyl}-7-hydroxy-2H-chromen-2-one]	7.62 µM
